In ChEMBL document CHEMBL4251613, “Synthesis and biological evaluation of diarylheptanoids as potential antioxidant and anti-inflammatory agents” (Eur J Med Chem, 2018):
The source made the active and inactive calls. The rule behind the calls is not given here.

Columns and labels:
RAW264.7 [1] = assay: Cytotoxicity against mouse RAW264.7 cells assessed as reduction in cell viability at 30 uM after 18 hrs by MTT assay; assay type: cell-based; details: raw264.7, 18 h
RAW264.7 [2] = assay: Anti-inflammatory activity in mouse RAW264.7 cells assessed as inhibition of LPS-induced ROS production at 30 uM measured after 4 hrs by H2DCFDA-AM probe based fluorescence assay; assay type: functional, cell-based
RAW264.7 [3] = assay: Anti-inflammatory activity in mouse RAW264.7 cells assessed as inhibition of LPS-induced ROS production measured after 4 hrs by H2DCFDA-AM probe based fluorescence assay; assay type: functional, cell-based; details: for IC50: RAW264.7, 4 h
RAW264.7 [4] = assay: Anti-inflammatory activity in mouse RAW264.7 cells assessed as inhibition of LPS-induced NO production at 30 uM preincubated for 30 mins followed by LPS stimulation measured after 4 hrs by Griess assay relative to control; assay type: functional
RAW264.7 [5] = assay: Cytotoxicity against mouse RAW264.7 cells assessed as reduction in cell viability up to 30 uM after 18 hrs by MTT assay; assay type: cell-based; details: raw264.7, 18 h
RAW264.7 [6] = assay: Anti-inflammatory activity in mouse RAW264.7 cells assessed as inhibition of LPS-induced IL-1beta mRNA level at 30 uM preincubated for 30 mins followed by LPS stimulation measured after 4 hrs by RT-PCR method relative to control; assay type: functional
RAW264.7 [7] = assay: Anti-inflammatory activity in mouse RAW264.7 cells assessed as inhibition of LPS-induced IL-6 mRNA level at 30 uM preincubated for 30 mins followed by LPS stimulation measured after 4 hrs by RT-PCR method relative to control; assay type: functional
RAW264.7 [8] = assay: Cytotoxicity against mouse RAW264.7 cells assessed as reduction in cell viability at 30 to 50 uM after 18 hrs by MTT assay; assay type: cell-based; details: raw264.7, 18 h
RAW264.7 [9] = assay: Cytotoxicity against mouse RAW264.7 cells assessed as reduction in cell viability after 18 hrs by MTT assay; assay type: cell-based; details: raw264.7, 18 h
RAW264.7 [10] = assay: Cytotoxicity against mouse RAW264.7 cells assessed as reduction in cell viability at 30 uM after 1 hr by MTT assay; assay type: cell-based; details: raw264.7, 1 h
[11] = Cytotoxicity against mouse RAW264.7 cells assessed as cell viability at 30 uM after 18 hrs by MTT assay relative to control; assay type: cell-based; details: read-out: Activity
RAW264.7 [12] = assay: Anti-inflammatory activity in mouse RAW264.7 cells assessed as inhibition of LPS-induced ROS production at 1 to 10 uM measured after 4 hrs by H2DCFDA-AM probe based fluorescence assay; assay type: functional, cell-based

Structure (SMILES)	Activity (RAW264.7 [1])	inhibition (RAW264.7 [2])	IC50 (RAW264.7 [3])	inhibition at 30 µM (RAW264.7 [4])	Activity (RAW264.7 [5])	inhibition at 30 µM (RAW264.7 [6])	inhibition at 30 µM (RAW264.7 [7])	Activity (RAW264.7 [8])	further results
COc1ccc(CCn2cc(CCc3ccc(O)cc3)nn2)cc1Br	Non-Toxic								
N[C@H]1Cc2ccc(cc2)Oc2cc(ccc2O)CCCNC1=O	Non-Toxic	inactive							
COc1ccc2cc1Oc1ccc(cc1)C[C@H](N)C(=O)NCCC2	Non-Toxic	Active	30 µM	> 80%	Non-Toxic	30 to 50%	> 60%	Non-Toxic	
Oc1ccc2cc1Oc1ccc(cc1)CC/C=C\C(O)CC2 (centres undefined)	Non-Toxic	Active	30 to 50 µM	> 80%	Non-Toxic	30 to 50%	> 60%	Toxic	
COc1ccc(CCCNC(=O)CCc2ccc(O)cc2)cc1Br	Non-Toxic	Active	30 to 50 µM	> 80%	Non-Toxic	30 to 50%	> 60%	Toxic	
O=C1CCc2ccc(cc2)Oc2cc(ccc2O)CCCN1	Non-Toxic	Active	30 to 50 µM	65%	Non-Toxic	30 to 50%	> 60%	Non-Toxic	
COc1ccc2cc1Oc1ccc(cc1)CCC(=O)NCCC2	Non-Toxic								
Oc1ccc2cc1Oc1ccc(cc1)CC/C=C\C=C\C2		Active	30 µM	> 65%					Activity (RAW264.7 [9]): Dose-dependent effect; inhibition (RAW264.7 [6]): Active; Activity (RAW264.7 [10]): Non-Toxic; inhibition (RAW264.7 [7]): Active; viability at 18 h, 30 µM [11]: < 60%; inhibition (RAW264.7 [12]): inactive
COc1ccc2cc1Oc1ccc(cc1)CC/C=C\C(O)CC2 (centres undefined)	Non-Toxic								
O=C1N[C@H]2Cc3ccc(cc3)Oc3cc(ccc3O)CCCN1C2=O	Non-Toxic								
COc1ccc(CCCNC(=O)[C@@H](N)Cc2ccc(O)cc2)cc1Br	Non-Toxic	Active	30 µM	> 80%	Non-Toxic	30 to 50%	> 60%	Non-Toxic	
Cc1c(C)c2c(c(C)c1O)CCC(C)(C(=O)O)O2 (centres undefined) [TROLOX]	Non-Toxic		30 µM						inhibition (RAW264.7 [3]): Dose-dependent effect
COc1ccc2cc1Oc1ccc(cc1)C[C@@H]1NC(=O)N(CCC2)C1=O	Non-Toxic								
COc1ccc(CCC(O)/C=C\CCc2ccc(O)cc2)cc1Br (centres undefined)	Toxic	Active							Activity (RAW264.7 [10]): Non-Toxic
Oc1ccc2cc1Oc1ccc(cc1)CCc1cn(nn1)CC2	Non-Toxic								
COc1ccc2cc1Oc1ccc(cc1)CCc1cn(nn1)CC2	Non-Toxic								
